What all share (test): NCI anticancer screen, dose series, 48 h
Assay [1] has as its system SNB-75.
The test system of assay [2] is SR.
The test system of assay [3] is NCI-H522.
The test system of assay [4] is BT-549.
The test system of assay [5] is MOLT-4.
For assay [6], the system named is SF-539.
The test system of assay [7] is OVCAR-3.
Assay [8] relates to SNB-19.
Assay [9] concerns HCT-116.
For assay [10], the system named is HT-29.
Assay [11] relates to HCC 2998.
Assay [12] deals with SK-OV-3.
Assay [13] relates to CAKI-1.
Assay [14] concerns OVCAR-8.
For assay [15], the system named is SK-MEL-28.
Assay [16] deals with OVCAR-5.
The subject of assay [17] is TK-10.
The subject of assay [18] is CCRF-CEM.
For assay [19], the system named is Hs-578T.

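Compound exposure: 48 hours, 5 concentrations, 96-well plates. Here, GI50 denotes the concentration required for 50% inhibition of growth.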 The source made the active and inactive calls. Cut-off read from the data, not from the text of the source: active = GI50 up to about 1.1 µM and inactive = higher. Bounds are passed on as bounds.

On to `C[N+](C)(C)CCOP(=O)([O-])OCCNC(=O)c1ccc2ccccc2c1`, for which the GI50 in [1] was > 100 µM (inactive); in assay [2], > 100 µM (inactive); in assay [3] it was > 100 µM (inactive); in assay [4], 2.05 µM (inactive); in assay [5], > 100 µM (inactive); in assay [6], > 100 µM (inactive). Also, the GI50 in assay [7], in assay [8], in assay [9], in [10], in [11] and in [12] was > 100 µM (inactive) throughout. Besides, the GI50 in [13], in assay [14], in [15], in assay [16], in assay [17] and in assay [18] was > 100 µM (inactive) each time.
Consider `Clc1ccc(OCc2nnc(CCCCCCCCc3nnc(COc4ccc(Cl)cc4)n3Nc3ccccc3)n2Nc2ccccc2)cc1`, for which the GI50 in assay [19] is 22.9 µM (inactive); in [1], 52.4 µM (inactive); in [3], 2.82 µM (inactive); in assay [4], 11.6 µM (inactive); in assay [5], 12.3 µM (inactive); in assay [6], 0.962 µM (active). Also, the GI50 in assay [7] was 14.2 µM (inactive); in assay [8] it was 12.9 µM (inactive); in assay [9] it was 4.44 µM (inactive); in assay [10], 5.24 µM (inactive); in assay [11], 12.2 µM (inactive); in assay [12], 17.1 µM (inactive). In addition, the GI50 is 0.531 µM (active) in [13]; 30.4 µM (inactive) in assay [14]; 4.62 µM (inactive) in [15]; 2.74 µM (inactive) in assay [16]; 23.7 µM (inactive) in assay [17].
For `Cc1cc(C2(O)C=C(C(C)(C)C)C(=O)C(C(C)(C)C)=C2)c(C)cc1C1(O)C=C(C(C)(C)C)C(=O)C(C(C)(C)C)=C1`, the GI50 in assay [1] is > 100 µM (inactive); in [2], 17.2 µM (inactive); in assay [3], > 100 µM (inactive); in assay [4] it was > 100 µM (inactive); in [5] it was > 100 µM (inactive); in assay [6], > 100 µM (inactive). In addition, the GI50 in assay [8], in [9], in assay [10], in assay [12], in assay [13] and in [14] was > 100 µM (inactive) throughout. In addition, the GI50 in [15], in assay [16], in assay [17] and in assay [18] was > 100 µM (inactive) throughout.
On to `C[C@H](CCC(=O)O)[C@H]1CC[C@H]2[C@@H]3CC[C@@H]4C[C@H](O)CC[C@]4(C)[C@H]3C[C@H](O)[C@]12C` [DEOXYCHOLIC ACID], for which the GI50 in assay [19] is 40.7 µM (inactive); in assay [1], 37.1 µM (inactive); in assay [3] it was 28 µM (inactive); in [4], 48.4 µM (inactive); in assay [5], 26.5 µM (inactive); in assay [6], 48 µM (inactive). In addition, the GI50 in assay [7] is 20.4 µM (inactive); in assay [8] it was 40.1 µM (inactive); in assay [9], 32.9 µM (inactive); in assay [10] it was 34.1 µM (inactive); in [11] it was 61.2 µM (inactive); in assay [12], 26.7 µM (inactive). In addition, the GI50 is 69.5 µM (inactive) in assay [13]; 39.4 µM (inactive) in assay [14]; 63.1 µM (inactive) in [15]; 44.7 µM (inactive) in assay [16]; > 100 µM (inactive) in assay [17]; 23.9 µM (inactive) in assay [18].
For `CN(C)c1nncc2[nH]cnc12`, the GI50 in [19], in [1], in assay [2], in assay [4], in [5] and in [6] was > 100 µM (inactive) throughout. The GI50 in assay [7], in assay [8], in assay [9], in [10], in assay [13] and in assay [14] was > 100 µM (inactive) in each case. In addition, the GI50 in assay [15], in assay [16], in [17] and in assay [18] was > 100 µM (inactive) throughout.
On to `C1=N\c2ccc(cc2)/N=C\c2ccccc2OCc2cccc(n2)COc2ccccc2/1`, for which the GI50 in assay [2] is > 100 µM (inactive); in [3], > 100 µM (inactive); in [4] it was > 100 µM (inactive); in assay [5], > 100 µM (inactive); in assay [6] it was 10.7 µM (inactive); in assay [7] it was > 100 µM (inactive). The GI50 was 21.1 µM (inactive) in assay [8]; > 100 µM (inactive) in assay [9]; > 100 µM (inactive) in assay [10]; > 100 µM (inactive) in assay [11]; > 100 µM (inactive) in assay [12]; > 100 µM (inactive) in [13]. For the same compound, the GI50 in [14], in assay [16], in assay [17] and in assay [18] was > 100 µM (inactive) throughout.
`CC[C@]1(Cc2ccc(OC)c(OC)c2)[C@@H]2C[C@@H](C3OCCO3)ON2O[C@H](OC2CCCC2(c2ccccc2)c2ccccc2)[C@@H]1OC(C)=O` (stereo partly specified): the GI50 was 24 µM (inactive) in [1]; 16.1 µM (inactive) in [2]; 15.1 µM (inactive) in assay [3]; 25.6 µM (inactive) in assay [4]; 10.1 µM (inactive) in [5]; 40.4 µM (inactive) in assay [6]. Also, the GI50 in assay [7] is 12.7 µM (inactive); in assay [8], 18.1 µM (inactive); in assay [9], 17.4 µM (inactive); in assay [10], 23.5 µM (inactive); in assay [12], 43.1 µM (inactive); in [13], 32.8 µM (inactive). The GI50 is 24.9 µM (inactive) in [14]; 20.5 µM (inactive) in assay [15]; 17.9 µM (inactive) in [16]; 45.3 µM (inactive) in assay [17]; 18.7 µM (inactive) in [18].
For the compound `COC(=O)/C=C(\S/C(=C(/c1ccc(OC)cc1)n1cc(C(=O)OC)c(C(=O)OC)n1)c1ccc(OC)cc1)C(=O)OC`, the GI50 is 47.9 µM (inactive) in assay [19]; 55.1 µM (inactive) in assay [1]; 2.77 µM (inactive) in [2]; 65.3 µM (inactive) in assay [4]; 2.78 µM (inactive) in assay [5]; 21.6 µM (inactive) in assay [6]. The GI50 is 3.42 µM (inactive) in assay [7]; 51.8 µM (inactive) in assay [8]; 9.98 µM (inactive) in assay [9]; 8.04 µM (inactive) in assay [10]; > 100 µM (inactive) in [12]; 2.58 µM (inactive) in [13]. The GI50 in [14] was 2.11 µM (inactive); in [15], 3.08 µM (inactive); in assay [16], 27.1 µM (inactive); in assay [17], 4.33 µM (inactive); in [18] it was 0.399 µM (active).
For the compound `COC(=O)[C@@H](NC(=O)c1ccc(CNC(=O)/C(C)=C/c2ccccc2)cc1)C(C)C`, the GI50 was > 100 µM (inactive) in assay [1]; > 100 µM (inactive) in assay [2]; 83.9 µM (inactive) in [3]; > 100 µM (inactive) in assay [4]; 78.2 µM (inactive) in assay [5]; > 100 µM (inactive) in assay [6]. Further, the GI50 in assay [7] was 27.4 µM (inactive); in [8], > 100 µM (inactive); in assay [9] it was > 100 µM (inactive); in [10] it was > 100 µM (inactive); in assay [11], 26.9 µM (inactive); in [12] it was > 100 µM (inactive). Moreover, the GI50 in [13] was > 100 µM (inactive); in assay [14], > 100 µM (inactive); in [15] it was 40.8 µM (inactive); in [16], > 100 µM (inactive); in assay [17] it was > 100 µM (inactive); in [18] it was 4.71 µM (inactive).
On to `ClC1=NSSC1(Cl)Cl`, for which the GI50 in [1] is 41.7 µM (inactive); in assay [2] it was 21 µM (inactive); in [3], 7.6 µM (inactive); in [4] it was 41.6 µM (inactive); in [5] it was 14.8 µM (inactive); in assay [6], 40.5 µM (inactive). The GI50 in assay [7] is 25.2 µM (inactive); in [8] it was 90.4 µM (inactive); in assay [9] it was 30.6 µM (inactive); in [10], 30.5 µM (inactive); in assay [11], > 100 µM (inactive); in assay [13], 18.5 µM (inactive). The GI50 is 24.4 µM (inactive) in assay [14], > 10 µM (inactive) in assay [15], 29.9 µM (inactive) in assay [16] and 6.47 µM (inactive) in assay [18].
Turning to `O=C(Sc1c(-c2ccccc2)c(=O)n(-c2ccccc2)c(=S)n1-c1ccccc1)c1cccs1`, the GI50 is > 100 µM (inactive) in assay [19]; 29.6 µM (inactive) in [1]; 38.4 µM (inactive) in assay [2]; 29.2 µM (inactive) in assay [3]; > 100 µM (inactive) in assay [4]; 18.7 µM (inactive) in [5]. For the same compound, the GI50 in [7] is > 100 µM (inactive); in [8], > 100 µM (inactive); in [9] it was 56.2 µM (inactive); in assay [10], 72.3 µM (inactive); in assay [12], 35 µM (inactive); in assay [13], > 100 µM (inactive). The GI50 in assay [14] was 73.3 µM (inactive); in [15], > 100 µM (inactive); in assay [16] it was > 100 µM (inactive); in assay [17], > 100 µM (inactive); in [18] it was 11.8 µM (inactive).

Source of the values: ChEMBL document CHEMBL1201862, “PubChem BioAssay data set” (2004).
